{"source": "patent US8945061B2", "about": "“Otic formulations, methods and devices” (Entrx LLC, priority 2012, dated 2015)", "key": {"C. albicans": {"tested_on": "C. albicans", "details": "n=5 strains, 48 hours, prominent growth reduction endpoint"}, "C. glabrata": {"tested_on": "C. glabrata", "details": "n=5 strains, 48 hours, prominent growth reduction endpoint"}, "C. krusei": {"tested_on": "C. krusei", "details": "n=5 strains, 48 hours, prominent growth reduction endpoint"}, "C. tropicalis": {"tested_on": "C. tropicalis", "details": "n=5 strains, 48 hours, prominent growth reduction endpoint"}, "C. parapsilosis": {"tested_on": "C. parapsilosis", "details": "n=1 strain, 48 hours, prominent growth reduction endpoint"}, "C. lusitaniae": {"tested_on": "C. lusitaniae", "details": "n=1 strain, 48 hours, prominent growth reduction endpoint"}, "A. fumigatus": {"tested_on": "A. fumigatus", "details": "n=5 strains, 48 hours, prominent growth reduction endpoint"}, "A. niger": {"tested_on": "A. niger", "details": "n=5 strains, 48 hours, prominent growth reduction endpoint"}, "fungus and bacteria": {"tested_on": "fungus and bacteria", "details": "published literature; cited from earlier work"}, "Staphlococcus aureus": {"tested_on": "Staphlococcus aureus", "details": "cited from earlier work"}, "Pseudomonas": {"tested_on": "Pseudomonas", "details": "cited from earlier work"}, "[1]": {"tested_on": "22 Candida spp. and 10 Aspergillus spp.", "details": "all yeasts and moulds tested; judged from high MICs"}}}
{"smiles": "Clc1ccccc1C(c1ccccc1)(c1ccccc1)n1ccnc1", "note": "[CTZ, clotrimazole]", "values": [{"measurement": "MIC range", "setting": "C. albicans", "value": "≦0.015 mcg/ml"}, {"measurement": "MIC range", "setting": "C. glabrata", "value": "0.25 to 1", "unit": "µg/mL"}, {"measurement": "MIC range", "setting": "C. krusei", "value": "0.06 to 0.125", "unit": "µg/mL"}, {"measurement": "MIC range", "setting": "C. tropicalis", "value": "0.06 to 2", "unit": "µg/mL"}, {"measurement": "MIC range", "setting": "C. parapsilosis", "value": 0.06, "unit": "µg/mL"}, {"measurement": "MIC range", "setting": "C. lusitaniae", "value": "≦0.015 mcg/ml"}, {"measurement": "MIC range", "setting": "A. fumigatus", "value": "0.25 to 0.5", "unit": "µg/mL"}, {"measurement": "MIC range", "setting": "A. niger", "value": "0.5 to 1", "unit": "µg/mL"}, {"measurement": "Spectrum of Efficacy", "setting": "fungus and bacteria", "value": "Aspergillus fiavus, Aspergilius fumigatus, Blastomyces"}, {"measurement": "antibacterial activity", "setting": "Staphlococcus aureus", "value": "demonstrated antibacterial activity"}, {"measurement": "antibacterial activity", "setting": "Pseudomonas", "value": "demonstrated antibacterial activity"}]}
{"smiles": "C[C@@H]1[C@H](O)[C@@H](C)/C=C/C=C/CC/C=C/C=C/C=C/C=C/C(O[C@H]2O[C@H](C)[C@@H](O)[C@H](N)[C@@H]2O)CC2O[C@](O)(CC(O)C(O)CCC(O)CC(O)CC(O)CC(=O)O[C@H]1C)CC(O)C2C(=O)O", "note": "(some centres unmarked) [Nystatin, nystatin]", "values": [{"measurement": "Spectrum of Efficacy", "setting": "fungus and bacteria", "value": "primarily fungistatic at low concentrations against biphasic"}]}
{"smiles": "Cc1cccc(N(C)C(=S)Oc2ccc3ccccc3c2)c1", "note": "[tolnaftate]", "values": [{"measurement": "Spectrum of Efficacy", "setting": "fungus and bacteria", "value": "Fungistatic for dermatophytes and Tinea Versicoior"}]}
{"smiles": "O=C(O)c1cn(C2CC2)c2cc(N3CCNCC3)c(F)cc2c1=O", "note": "[CIPRO, ciprofloxacin]", "values": [{"measurement": "antifungal activity on its own", "setting": "[1]", "value": "no antifungal activity on its own"}]}
